This is an account of results in patent US20030004172A1, “Fused pyrimidinone matrix metalloproteinase inhibitors” (priority 2001, published 2003).

For orientation: IC50 means the concentration that gives 50% inhibition.

The assay deals with MMP-13CD (catalytic domain of collagenase-3) (Homo sapiens, UniProt P45452). Description: Thiopeptolide substrate hydrolysis inhibition assay, MMP-13CD. The class given is biochemical. The note with it: Table I; thiopeptolide substrate, HEPES pH 7.0, 22° C.; read-out: MMP-13CD IC50. An excerpt: Thiopeptolide substrates show virtually no decomposition or hydrolysis at or below neutral pH in the absence of a matrix metalloproteinase enzyme.

For `Cn1c(=O)n(Cc2ccc(F)cc2)c(=O)c2cc(C(=O)OCc3ccccc3)sc21` [Example 118, 3-(4-Fluoro-benzyl)-1-methyl-2,4-dioxo-1,2,3,4-tetrahydro-thieno[2,3-d]pyrimidine-6-carboxylic acid benzyl ester], the half-inhibitory concentration (IC50) amounted to 15 nM.

Consider `COc1cccc(CNC(=O)c2cc3c(=O)n(Cc4ccc(C(=O)OCOC(=O)C(C)(C)C)cc4)c(=O)n(C)c3s2)c1` [Example 89, 4-[6-(3-Methoxy-benzylcarbamoyl)-1-methyl-2,4-dioxo-1,4-dihydro-2H-thieno[2,3-d]pyrimidin-3-ylmethyl]-benzoic acid 2,2-dimethyl-propionyloxymethyl ester], for which the IC50 stood at 113 nM.

For `Cn1c(=O)n(Cc2ccccc2)c(=O)c2cc(C(=O)OCc3c(Cl)cccc3Cl)sc21` [Example 149, 3-Benzyl-1-methyl-2,4-dioxo-1,2,3,4-tetrahydro-thieno[2,3-d]pyrimidine-6-carboxylic acid 2,6-dichloro-benzyl ester], the IC50 came out at 15000 nM.

`COc1cccc(COC(=O)c2cc3c(=O)n(Cc4ccc(C#N)cc4)c(=O)[nH]c3s2)c1` [Example 66, 3-(4-Cyano-benzyl)-2,4-dioxo-1,2,3,4-tetrahydro-thieno[2,3-d]pyrimidine-6-carboxylic acid 3-methoxy-benzyl ester]: the IC50 was 27.5 nM.

On to `CCC1(COC(=O)c2cc3c(=O)n(Cc4ccccc4)c(=O)n(C)c3s2)COC1` [Example 173, 3-Benzyl-1-methyl-2,4-dioxo-1,2,3,4-tetrahydro-thieno[2,3-d]pyrimidine-6-carboxylic acid 3-ethyl-oxetan-3-ylmethyl ester], for which the IC50 is more than 100000 nM.

Consider `COc1cccc(COC(=O)c2cc3c(=O)n(Cc4ccccc4)c(=O)n(C)c3s2)c1` [Example 192, 3-Benzyl-1-methyl-2,4-dioxo-1,2,3,4-tetrahydro-thieno[2,3-d]pyrimidine-6-carboxylic acid 3-methoxy-benzyl ester], for which the IC50 was 3.4 nM.

For the compound `Cn1c(=O)n(Cc2ccccc2)c(=O)c2cc(C(=O)NCCCCc3ccccc3)sc21` [Example 338, 3-Benzyl-1-methyl-2,4-dioxo-1,2,3,4-tetrahydro-thieno[2,3-d]pyrimidine-6-carboxylic acid (4-phenyl-butyl)-amide], the IC50 was more than 100000 nM.

Regarding `C=CCCOC(=O)c1cc2c(=O)n(Cc3ccccc3)c(=O)n(C)c2s1` [Example 208, 3-Benzyl-1-methyl-2,4-dioxo-1,2,3,4-tetrahydro-thieno[2,3-d]pyrimidine-6-carboxylic acid but-3-enyl ester], the IC50 stood at 100 nM.

Consider `Cc1ccc(CCOC(=O)c2cc3c(=O)n(Cc4ccccc4)c(=O)n(C)c3s2)cc1` [Example 155, 3-Benzyl-1-methyl-2,4-dioxo-1,2,3,4-tetrahydro-thieno[2,3-d]pyrimidine-6-carboxylic acid 2-p-tolyl-ethyl ester], for which the IC50 was 62000 nM.

As to `COC(=O)C1CCC(Cn2c(=O)c3cc(C(=O)NCc4cccc(OC)c4)sc3n(C)c2=O)CC1` (stereo not drawn) [Example 91, 4-[6-(3-Methoxy-benzylcarbamoyl)-1-methyl-2,4-dioxo-1,4-dihydro-2H-thieno[2,3-d]pyrimidin-3-ylmethyl]-cyclohexanecarboxylic acid methyl ester], the IC50 is 49.6 nM.

With `COc1ccc(CNC(=O)c2cc3c(=O)n(Cc4ccc(F)cc4)c(=O)n(C)c3s2)cc1` [Example 60, 3-(4-Fluoro-benzyl)-1-methyl-2,4-dioxo-1,2,3,4-tetrahydro-thieno[2,3-d]pyrimidine-6-carboxylic acid 4-methoxy-benzylamide], the half-inhibitory concentration (IC50) stood at 160 nM.

As for `COc1ccc(CNC(=O)c2cc3c(=O)n(Cc4ccc(C(=O)O)cc4)c(=O)n(C)c3s2)cc1OC` [Example 54, 4-[6-(3,4-Dimethoxy-benzylcarbamoyl)-1-methyl-2,4-dioxo-1,4-dihydro-2H-thieno[2,3-d]pyrimidin-3-ylmethyl]-benzoic acid], the IC50 amounted to 4500 nM.

On to `C=CCn1c(=O)c2cc(C(=O)OCc3ccccc3)sc2n(C)c1=O` [Example 129, 3-Allyl-1-methyl-2,4-dioxo-1,2,3,4-tetrahydro-thieno[2,3-d]pyrimidine-6-carboxylic acid benzyl ester], for which the IC50 came to 160 nM.

Consider `CSc1ccc(COC(=O)c2cc3c(=O)n(Cc4ccccc4)c(=O)n(C)c3s2)cc1` [Example 203, 3-Benzyl-1-methyl-2,4-dioxo-1,2,3,4-tetrahydro-thieno[2,3-d]pyrimidine-6-carboxylic acid 4-methylsulfanyl-benzyl ester], for which the IC50 was found to be 360 nM.

`COc1ccc(CNC(=O)c2cc3c(=O)n(CCN)c(=O)n(C)c3s2)cc1` [Example 235, 3-(2-aminoethyl)-1-methyl-2,4-dioxo-1,2,3,4-tetrahydro-thieno[2,3-d]pyrimidine-6-carboxylic acid 4-methoxy-benzylamide]: the IC50 amounted to 18000 nM.

For the compound `Cn1c(=O)n(Cc2ccccc2)c(=O)c2cc(C(=O)OCC3COc4ccccc4O3)sc21` (stereo not drawn) [Example 151, 3-Benzyl-1-methyl-2,4-dioxo-1,2,3,4-tetrahydro-thieno[2,3-d]pyrimidine-6-carboxylic acid 2,3-dihydro-1,4-benzodioxin-2-ylmethyl ester], the IC50 was more than 100000 nM.

Regarding `Cn1c(=O)n(Cc2ccccc2)c(=O)c2cc(C(=O)OCc3ccc4c(c3)OCO4)sc21` [Example 201, 3-Benzyl-1-methyl-2,4-dioxo-1,2,3,4-tetrahydro-thieno[2,3-d]pyrimidine-6-carboxylic acid 1,3-benzodioxol-5-ylmethyl ester], the IC50 was 300 nM.

Turning to `Cn1c(=O)n(Cc2ccccc2)c(=O)c2cc(C(=O)NCc3ccccc3Cl)sc21` [Example 345, 3-Benzyl-1-1-methyl-2,4-dioxo-1,2,3,4-tetrahydro-thieno[2,3-d]pyrimidine-6-carboxylic acid 2-chloro-benzylamide], the IC50 came to 30000 nM.

As for `Cn1c(=O)n(Cc2ccccc2)c(=O)c2cc(C(=O)OCc3c(F)cccc3Cl)sc21` [Example 190, 3-Benzyl-1-methyl-2,4-dioxo-1,2,3,4-tetrahydro-thieno[2,3-d]pyrimidine-6-carboxylic acid 2-chloro-6-fluoro-benzyl ester], the IC50 is more than 100000 nM.

With `Cn1c(=O)n(Cc2ccccc2)c(=O)c2cc(C(=O)OCc3ccc(OCc4ccccc4)cc3)sc21` [Example 187, 3-Benzyl-1-methyl-2,4-dioxo-1,2,3,4-tetrahydro-thieno[2,3-d]pyrimidine-6-carboxylic acid 4-benzyloxy-benzyl ester], the IC50 was more than 100000 nM.

Turning to `COc1cccc(CNC(=O)c2cc3c(=O)n(CCOc4ccccc4)c(=O)n(C)c3s2)c1` [Example 297], the IC50 was found to be 57 nM.

For the compound `Cn1c(=O)n(Cc2ccccc2)c(=O)c2cc(C(=O)OCCc3ccccc3O)sc21` [Example 159, 3-Benzyl-1-methyl-2,4-dioxo-1,2,3,4-tetrahydro-thieno[2,3-d]pyrimidine-6-carboxylic acid 2-(2-hydroxy-phenyl)-ethyl ester], the IC50 is 30000 nM.

For the compound `CCCCC(CC)Cn1c(=O)c2cc(C(=O)NCc3ccc(OC)cc3)sc2n(C)c1=O` (stereo not drawn) [Example 256], the IC50 was determined as 27500 nM.

As for `COc1cccc(CNC(=O)c2cc3c(=O)n(CC[C@@H](C)CCC=C(C)C)c(=O)n(C)c3s2)c1` [Example 280], the IC50 is 17000 nM.
